Data set [1] is described as follows: Half life in mouse at 2 mg/kg, iv. Type of data set: ADME, organism-based. The settings on record: in vivo.
Data set [2] deals with Pfeiffer. The data set can be described thus: Antiproliferative activity against human Pfeiffer cells harboring EZH2 A677G mutant. The data set is classed as functional, cell-based.
Data set [3] deals with KARPAS-422. The data set is described as follows: Antiproliferative activity against human KARPAS-422 cells harboring EZH2 Y641N mutant. The data set is classed as functional, cell-based.
Data set [4] can be described thus: Clearance in mouse at 2 mg/kg, iv. The following applies: in vivo. The data set is classed as ADME, organism-based.
Data set [5] is described as follows: Volume of distribution at steady state in mouse at 2 mg/kg, iv. Type of data set: ADME, organism-based. The following applies: in vivo, read-out: Vdss.
Data set [6] in a line: AUC (0 to t) in mouse at 10 mg/kg, po. Type of data set: ADME, organism-based. The settings on record: in vivo.
In a further data set the test system is WSUDLCL2. The data set is described as follows: Antiproliferative activity against human WSUDLCL2 cells harboring EZH2 Y641F mutant. The data set is classed as functional, cell-based.
Data set [7] can be described thus: Oral bioavailability in mouse at 10 mg/kg. The following applies: in vivo. Type of data set: ADME, organism-based.
A short description of data set [8]: Half life in mouse at 10 mg/kg, po. The data set is classed as ADME, organism-based. The following applies: in vivo.
A short description of data set [9]: Cmax in mouse at 2 mg/kg, iv. Type of data set: ADME, organism-based. The settings on record: in vivo.
Data set [10] is described as follows: AUC (0 to t) in mouse at 2 mg/kg, iv. The following applies: in vivo. The data set is classed as ADME, organism-based.
Data set [11] in a line: AUC (0 to infinity) in mouse at 2 mg/kg, iv. The data set is classed as ADME, organism-based. The settings on record: in vivo.
Data set [12] can be described thus: Cmax in mouse at 10 mg/kg, po. Type of data set: ADME, organism-based. The following applies: in vivo.
Data set [13] can be described thus: AUC (0 to infinity) in mouse at 10 mg/kg, po. Type of data set: ADME, organism-based. The following applies: in vivo.
Data set [14] in a line: Metabolic stability in mouse liver microsomes assessed as intrinsic clearance in hepatocytes measured per million cells. The data set is classed as ADME, Microsome.
Data set [15] can be described thus: Metabolic stability in human liver microsomes assessed as half life. The data set is classed as ADME, Microsome.
The test system of data set [16] is KARPAS-422. The data set is described as follows: Antitumor activity against human KARPAS-422 cells harboring EZH2 Y641N mutant xenografted in mouse assessed as reduction tumor volume at 50 to 200 mg/kg, po bid for 28 days relative to control. The data set is classed as functional. Set-up: scale not given: the % may be the effect or the level left. The settings on record: dose 50-200 mg/kg, time 28 day.

Data set [17] has as its system KARPAS-422. The data set is described as follows: Antitumor activity against human KARPAS-422 cells harboring EZH2 Y641N mutant xenografted in mouse at 50 mg/kg, po bid for 28 days relative to control. Type of data set: functional. The settings on record: KARPAS-422, 672 h, time 28 day, read-out: TGI.
A short description of data set [18]: Metabolic stability in dog liver microsomes assessed as intrinsic clearance in liver. The following applies: read-out: CLH. Type of data set: ADME, Canis lupus familiaris, Microsome.
Data set [19] concerns Pfeiffer. The data set can be described thus: Antitumor activity against human Pfeiffer cells harboring EZH2 A677G mutant xenografted in mouse assessed as reduction in tumor volume at 25 to 100 mg/kg, po qd for 28 days. Type of data set: functional. Also on record: scale not given: the % may be the effect or the level left. The settings on record: dose 25-100 mg/kg, time 28 day.

A short description of data set [20]: Drug concentration in human KARPAS-422 cells harboring EZH2 Y641N mutant xenografted in mouse at 100 mg/kg, po measured after 8 hrs. Type of data set: ADME, organism-based. The settings on record: KARPAS-422 xenograft tumour, read-out: Ct.
For data set [21], the system named is KARPAS-422. The data set is described as follows: Antitumor activity against human KARPAS-422 cells harboring EZH2 Y641N mutant xenografted in mouse at 200 mg/kg, po bid for 28 days relative to control. The following applies: KARPAS-422, 672 h, time 28 day, read-out: TGI. The data set is classed as functional.
Data set [22] in a line: Metabolic stability in mouse liver microsomes assessed as intrinsic clearance in liver. The data set is classed as ADME, Microsome. The settings on record: read-out: CLH.
The nature of data set [23]: Metabolic stability in monkey liver microsomes assessed as half life. Type of data set: ADME, Macaca mulatta, Microsome. The settings on record: rhesus monkey.
The nature of data set [24]: Toxicity in mouse xenografted with human Pfeiffer cells harboring EZH2 A677G mutant assessed as body weight loss at 25 to 100 mg/kg, po qd for 28 days. The data set is classed as organism-based. The settings on record: in vivo, 672 h, dose 25-100 mg/kg, time 28 day.
Data set [25] deals with KARPAS-422. The data set is described as follows: Antitumor activity against human KARPAS-422 cells harboring EZH2 Y641N mutant xenografted in mouse at 100 mg/kg, po bid for 28 days relative to control. Type of data set: functional. The following applies: KARPAS-422, 672 h, time 28 day, read-out: TGI.
Data set [26] has as its system Pfeiffer. The data set is described as follows: Antitumor activity against human Pfeiffer cells harboring EZH2 A677G mutant xenografted in mouse at 25 mg/kg, po qd for 28 days relative to control. Type of data set: functional. The settings on record: 672 h, time 28 day, read-out: TGI.
Data set [27] can be described thus: Metabolic stability in rat liver microsomes assessed as intrinsic clearance in liver. The data set is classed as ADME, Microsome. The settings on record: read-out: CLH.
Data set [28] is described as follows: Metabolic stability in human liver microsomes assessed as intrinsic clearance in liver. Type of data set: ADME, Microsome. The following applies: read-out: CLH.
A short description of data set [29]: Metabolic stability in monkey liver microsomes assessed as intrinsic clearance in liver. The settings on record: rhesus monkey, read-out: CLH. Type of data set: ADME, Macaca mulatta, Microsome.
Data set [30] is described as follows: Metabolic stability in human liver microsomes assessed as intrinsic clearance in hepatocytes measured per million cells. Type of data set: ADME, Microsome.
Data set [31] in a line: Metabolic stability in rat liver microsomes assessed as intrinsic clearance in hepatocytes measured per million cells. Type of data set: ADME, Microsome.
Data set [32] can be described thus: Toxicity in mouse xenografted with human KARPAS-422 cells harboring EZH2 Y641N mutant assessed as body weight loss at 50 to 200 mg/kg, po bid for 28 days. The data set is classed as organism-based. The following applies: in vivo, 672 h, dose 50-200 mg/kg, time 28 day.
Data set [33] can be described thus: Metabolic stability in rat liver microsomes assessed as half life. Type of data set: ADME, Microsome.
Data set [34] can be described thus: Metabolic stability in monkey liver microsomes assessed as intrinsic clearance in hepatocytes measured per million cells. Type of data set: ADME, Macaca mulatta, Microsome. The following applies: rhesus monkey.
Data set [35] relates to Pfeiffer. The data set can be described thus: Antitumor activity against human Pfeiffer cells harboring EZH2 A677G mutant xenografted in mouse at 100 mg/kg, po qd for 28 days relative to control. The following applies: 672 h, time 28 day, read-out: TGI. Type of data set: functional.
A short description of data set [36]: Metabolic stability in dog liver microsomes assessed as half life. Type of data set: ADME, Canis lupus familiaris, Microsome.
The nature of data set [37]: Drug concentration in human KARPAS-422 cells harboring EZH2 Y641N mutant xenografted in mouse at 100 mg/kg, po measured after 4 hrs. The data set is classed as ADME, organism-based. The settings on record: KARPAS-422 xenograft tumour, read-out: Ct.
Data set [38] can be described thus: Metabolic stability in mouse liver microsomes assessed as half life. The data set is classed as ADME, Microsome.
Data set [39] in a line: Metabolic stability in dog liver microsomes assessed as intrinsic clearance in hepatocytes measured per million cells. Type of data set: ADME, Canis lupus familiaris, Microsome.
For data set [40], the system named is Pfeiffer. The data set can be described thus: Antitumor activity against human Pfeiffer cells harboring EZH2 A677G mutant xenografted in mouse at 50 mg/kg, po qd for 28 days relative to control. Type of data set: functional. The settings on record: 672 h, time 28 day, read-out: TGI.

We go through 3 compounds from ChEMBL document CHEMBL5584208, “Conformationally constrained potent inhibitors for enhancer of zeste homolog 2 (EZH2)” (Bioorg Med Chem Lett, 2024).

As for `CCN(c1cc(-c2ccc3c(c2)N(C)CC32CCOCC2)cc(C(=O)NCc2c(C)cc(C)[nH]c2=O)c1C)C1CCOCC1`, the half-life in [1] and in data set [8] was 10.8 min in each case. Besides, the IC50 in the data set on Pfeiffer [2] was determined as 1.01 nM; in the data set with KARPAS-422 [3] it was 1.9 nM; in the data set with WSUDLCL2 it was 1.9 nM. In data set [4], this compound returned a clearance of 34.6 mL/min/kg. In addition, the Vd in data set [5] was 0.565 L/kg. Further, the exposure AUC(0-t) in [6] stood at 566 ng·h/mL; in data set [10], 949 ng·h/mL. The bioavailability in data set [7] was 11.9%. Besides, the Cmax in [9] was determined as 2790 ng/mL; in [12], 1280 ng/mL. The values for the AUC(0-inf) in data set [11] and in data set [13] were 955 ng·h/mL and 570 ng·h/mL, respectively.

`CCN(c1cc(-c2ccc3c(c2)NC(=O)C32CCOCC2)cc(C(=O)NCc2c(C)cc(C)[nH]c2=O)c1C)C1CCOCC1`: the half-life in [1] was 25.2 min; in data set [8], 37.2 min. Besides, the IC50 turned out to be 0.56 nM with Pfeiffer [2], 0.98 nM with KARPAS-422 [3] and 1.34 nM in the data set with WSUDLCL2. Moreover, the clearance in data set [4] came out at 99.7 mL/min/kg. Also, the Vd in [5] turned out to be 2.61 L/kg. For the same compound, the AUC(0-t) in data set [6] was determined as 122 ng·h/mL; in data set [10], 331 ng·h/mL. Also, the bioavailability in data set [7] was determined as 7.4%. Also, the Cmax in [9] is 912 ng/mL; in [12] it was 152 ng/mL. Also, the results for the AUC(0-inf) in data set [11] and in data set [13] were 340 ng·h/mL and 125 ng·h/mL, respectively.

`CCN(c1cc(-c2ccc3c(c2)CCC3N2CCOCC2)cc(C(=O)NCc2c(C)cc(C)[nH]c2=O)c1C)C1CCOCC1` (centres undefined): the CLH in data set [14] amounted to 79.3 µL/min; in data set [30] it was 17.3 µL/min; in data set [31], 99.9 µL/min; in data set [34], 75.6 µL/min; in [39] it was 40.2 µL/min. For the same compound, the half-life in data set [1] is 25.2 min; in data set [15], 80.3 min; in data set [23], 18.3 min; in data set [8] it was 40.2 min; in data set [33], 13.9 min; in data set [36], 34.5 min. The half-life in data set [38] turned out to be 17.5 min. In addition, the Activity in the data set on KARPAS-422 [16] is 16%; in the data set with Pfeiffer [19], 53.1%; in [24], “Non-Toxic”; in data set [32], “Non-Toxic”. Further, the inhibition in vivo at 50 mg/kg came to 16% with KARPAS-422 [17] and 68.9% with Pfeiffer [40]. Moreover, the CLint scaled is 276 mL/min/kg in [18]; 942 mL/min/kg in data set [22]; 468 mL/min/kg in data set [27]; 48 mL/min/kg in data set [28]; 272 mL/min/kg in data set [29]. Also, the IC50 turned out to be 1.73 nM in the data set on Pfeiffer [2], 1.82 nM in the data set on KARPAS-422 [3] and 2.36 nM with WSUDLCL2. For the same compound, the concentration at 8 h in [20] is 9520 ng/mL. Moreover, in the data set with KARPAS-422 [21], the inhibition in vivo at 200 mg/kg was found to be 98%. The inhibition in vivo at 100 mg/kg in the data set on KARPAS-422 [25] came to 52.5%; with Pfeiffer [35] it was 100%. For the same compound, in the data set with Pfeiffer [26], the inhibition in vivo at 25 mg/kg is 53.1%. In addition, in [4], the clearance came to 20.7 mL/min/kg. For the same compound, in data set [5], the Vd is 0.65 L/kg. Also, the values for the AUC(0-t) in [6] and in data set [10] were 2960 ng·h/mL and 1610 ng·h/mL, respectively. In data set [7], this compound came in with a bioavailability of 36.9%. Further, the figures for the maximum concentration (Cmax) in data set [9] and in [12] were 2400 ng/mL and 1700 ng/mL, respectively. In addition, the concentration at 4 h in data set [37] was 8580 ng/mL. Besides, the values for the AUC(0-inf) in data set [11] and in data set [13] were 1610 ng·h/mL and 2970 ng·h/mL, respectively.
